Reference: patent US20240101570A1 (AMGEN INC., priority 2020, published 2024)
pIC50: −log10 of the molar value.

Assays:
HCT116 WT cells = experiment: HCT116 WT cell proliferation / viability (CellTiter-Glo, 6 days); assay type: cell-based; conditions: Homo sapiens, HCT-116, 144 h, HCT116 WT cells, 6 days, CellTiter-Glo; read-out: HCT-116 WT IC50
In short: (§1)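 Viability read by CellTiter-Glo after 6-day compound exposure of MTAP-null and wild-type HCT116 cells grown in RPMI 1640 with 10% FBS. Dosing used 1:3 steps from 1 or 10 μM (8-9 points) or 1:2 steps from 10 or 50 μM (22 points); IC50 taken where fitted curve crosses 50% of control.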

HCT116 MTAP null cells = experiment: HCT116 MTAP null cell proliferation / viability (CellTiter-Glo, 6 days); assay type: cell-based; conditions: HCT116-MTAP null, 144 h, HCT116 MTAP null cells, 6 days, CellTiter-Glo; read-out: HCT-116 MTAP null IC50
In short: as §1

SMILES	pIC50 (HCT116 WT cells)	pIC50 (HCT116 MTAP null cells)
CN(Cc1ccc(C2CC2)nn1)C(=O)c1cc2c(cc1F)nc(N)c1c2cnn1C [Example 517, 4-amino-N-((6-cyclopropyl-3-pyridazinyl)methyl)-7-fluoro-N,3-dimethyl-3H-pyrazolo[3,4-c]quinoline-8-carboxamide]	4.34	6.15
CN(Cc1ccc(C2CC2)nn1)C(=O)c1cc2c(cc1F)nc(N)c1cnn(C)c12 [Example 518, 4-amino-N-((6-cyclopropyl-3-pyridazinyl)methyl)-7-fluoro-N,1-dimethyl-1H-pyrazolo[4,3-c]quinoline-8-carboxamide]	5.20	6.97
CN(Cc1ccc(C2CC2)nn1)C(=O)c1cc2c3c(c(N)nc2cc1Cl)COC3 [Example 519, 4-amino-7-chloro-N-((6-cyclopropyl-3-pyridazinyl)methyl)-N-methyl-1,3-dihydrofuro[3,4-c]quinoline-8-carboxamide]	4.85	6.73
CN(Cc1ccc(Cl)cn1)C(=O)c1ccc2nc(N)c3cnn(C)c3c2c1 [Example 523, 4-amino-N-((5-chloro-2-pyridinyl)methyl)-N,1-dimethyl-1H-pyrazolo[4,3-c]quinoline-8-carboxamide]	5.17	7.14
CN(Cc1ccc(C(F)F)cn1)C(=O)c1cc2c(cc1F)nc(N)c1cnn(C)c12 [Example 525, 4-amino-N-((5-(difluoromethyl)-2-pyridinyl)methyl)-7-fluoro-N,1-dimethyl-1H-pyrazolo[4,3-c]quinoline-8-carboxamide]	5.67	7.49
CN(Cc1ccc(C(F)(F)F)c(F)c1)C(=O)c1ccc2nc(N)c3cnn(C)c3c2c1 [Example 526, 4-amino-N-(3-fluoro-4-(trifluoromethyl)benzyl)-N,1-dimethyl-1H-pyrazolo[4,3-c]quinoline-8-carboxamide]	5.16	6.77
CN(Cc1ncc(C(F)(F)F)cc1F)C(=O)c1ccc2nc(N)c3cnn(C)c3c2c1 [Example 527, 4-amino-N-((3-fluoro-5-(trifluoromethyl)-2-pyridinyl)methyl)-N,1-dimethyl-1H-pyrazolo[4,3-c]quinoline-8-carboxamide]	4.87	6.74
CN(Cc1ncc(C(F)(F)F)cc1F)C(=O)c1cc2c3c(c(N)nc2cc1F)COC3 [Example 528, 4-amino-7-fluoro-N-((3-fluoro-5-(trifluoromethyl)-2-pyridinyl)methyl)-N-methyl-1,3-dihydrofuro[3,4-c]quinoline-8-carboxamide]	5.27	6.95
C[C@H](c1ccc(-c2ccc(C(F)(F)F)cc2)cc1)N(C)C(=O)c1ccc2nc(N)c3cnn(C)c3c2c1 [Example 531, 4-amino-N,1-dimethyl-N-((1R)-1-(4′-(trifluoromethyl)[biphenyl]-4-yl)ethyl)-1H-pyrazolo[4,3-c]quinoline-8-carboxamide]	5.63	6.73
C[C@H](c1ccc(-c2ccc(C(F)(F)F)cc2)nn1)N(C)C(=O)c1ccc2nc(N)c3cnn(C)c3c2c1 [Example 532, 4-amino-N,1-dimethyl-N-((1R)-1-(6-(4-(trifluoromethyl)phenyl)-3-pyridazinyl)ethyl)-1H-pyrazolo[4,3-c]quinoline-8-carboxamide]	5.69	7.43
C[C@H](c1ccc(-c2ccc(S(F)(F)(F)(F)F)cc2)cc1)N(C)C(=O)c1ccc2nc(N)c3cnn(C)c3c2c1 [Example 533, 4-amino-N,1-dimethyl-N-((1R)-1-(4′-(pentafluoro-lambda~6~- sulfanyl)[biphenyl]-4-yl)ethyl)-1H-pyrazolo[4,3-c]quinoline-8-carboxamide]	5.50	6.34
CC(C)N(Cc1ccc(C(F)(F)F)cn1)C(=O)c1cc2c3c(c(N)nc2cn1)CCO3 [Example 534, 4-amino-N-(2-propanyl)-N-((5-(trifluoromethyl)-2-pyridinyl)methyl)-2,3-dihydrofuro[3,2-c][1,7]naphthyridine-8-carboxamide]	5.25	6.24
CN(CC(F)(F)c1ccc(Cl)cn1)C(=O)c1ccc2nc(N)c3cnn(C)c3c2c1 [Example 535, 4-amino-N-(2-(5-chloro-2-pyridinyl)-2,2-difluoroethyl)-N,1-dimethyl-1H-pyrazolo[4,3-c]quinoline-8-carboxamide]	5.16	6.07
CC(C)N(Cc1ccc(C(F)(F)F)cn1)C(=O)c1cc2c3c(c(N)nc2cc1F)CCO3 [Example 536, 4-amino-7-fluoro-N-(2-propanyl)-N-((5-(trifluoromethyl)-2-pyridinyl)methyl)-2,3-dihydrofuro[3,2-c]quinoline-8-carboxamide]	6.49	7.30
CCN(Cc1ccc(C(F)(F)F)cn1)C(=O)c1cc2c3c(c(N)nc2nc1Cl)COC3 [Example 537, 4-amino-7-chloro-N-ethyl-N-((5-(trifluoromethyl)-2-pyridinyl)methyl)-1,3-dihydrofuro[3,4-c][1,8]naphthyridine-8-carboxamide]	5.27	6.65
CCN(Cc1ccc(C2CC2)cn1)C(=O)c1ccc2nc(N)c3c(c2c1)COC3 [Example 539, 4-amino-N-((5-cyclopropyl-2-pyridinyl)methyl)-N-ethyl-1,3-dihydrofuro[3,4-c]quinoline-8-carboxamide]	5.68	6.97
CCN(Cc1ccc(C2CC2)cn1)C(=O)c1ccc2nc(N)c3cnn(C)c3c2c1 [Example 540, 4-amino-N-((5-cyclopropyl-2-pyridinyl)methyl)-N-ethyl-1-methyl-1H-pyrazolo[4,3-c]quinoline-8-carboxamide]	5.83	7.41
CCN(Cc1ccc(C2CC2)cn1)C(=O)c1cc2c(cn1)nc(N)c1cnn(C)c12 [Example 541, 4-amino-N-((5-cyclopropyl-2-pyridinyl)methyl)-N-ethyl-1-methyl-1H-pyrazolo[4,3-c][1,7]naphthyridine-8-carboxamide]	6.26	7.43
CCN(Cc1ccc(C2CC2)cn1)C(=O)c1ccc2nc(N)c3c(c2c1)CO[C@@H]3C [Example 542, (3R)-4-amino-N-((5-cyclopropyl-2-pyridinyl)methyl)-N-ethyl-3-methyl-1,3-dihydrofuro[3,4-c]quinoline-8-carboxamide]	5.81	7.46

Continued by rising pIC50 (HCT116 WT cells), values first:

pIC50 (HCT116 WT cells)	pIC50 (HCT116 MTAP null cells)	SMILES
4.55	6.05	CN(Cc1ccc(-c2cnn(C(F)(F)F)c2)nn1)C(=O)c1ccc2nc(N)c3cnn(C)c3c2c1 [Example 529, 4-amino-N,1-dimethyl-N-((6-(1-(trifluoromethyl)-1H-pyrazol-4-yl)-3-pyridazinyl)methyl)-1H-pyrazolo[4,3-c]quinoline-8-carboxamide]
4.79	6.74	CN(Cc1ccc(C(F)F)cn1)C(=O)c1ccc2nc(N)c3cnn(C)c3c2c1 [Example 524, 4-amino-N-((5-(difluoromethyl)-2-pyridinyl)methyl)-N,1-dimethyl-1H-pyrazolo[4,3-c]quinoline-8-carboxamide]
5.03	6.78	Cc1cc2nc(N)c3cnn(C)c3c2cc1C(=O)N(C)Cc1ccc(F)cn1 [Example 516, 4-amino-N-((5-fluoro-2-pyridinyl)methyl)-N,1,7-trimethyl-1H-pyrazolo[4,3-c]quinoline-8-carboxamide]
5.04	6.83	Cc1cc2nc(N)c3c(cnn3C)c2cc1C(=O)N(C)Cc1ccc(C(F)(F)F)cn1 [Example 520, 4-amino-N,3,7-trimethyl-N-((5-(trifluoromethyl)-2-pyridinyl)methyl)-3H-pyrazolo[3,4-c]quinoline-8-carboxamide]
5.18	6.78	CN(Cc1ccc(-c2ccc(C(F)(F)F)cc2)nn1)C(=O)c1ccc2nc(N)c3cnn(C)c3c2c1 [Example 530, 4-amino-N,1-dimethyl-N-((6-(4-(trifluoromethyl)phenyl)-3-pyridazinyl)methyl)-1H-pyrazolo[4,3-c]quinoline-8-carboxamide]
5.47	7.10	CN(Cc1ccc(S(F)(F)(F)(F)F)cc1)C(=O)c1cc2c(cc1F)nc(N)c1c2cnn1C [Example 515, 4-amino-7-fluoro-N,3-dimethyl-N-(4-(pentafluoro-lambda~6~- sulfanyl)benzyl)-3H-pyrazolo[3,4-c]quinoline-8-carboxamide]
5.49	7.15	C[C@H]1OCc2c1c(N)nc1ccc(C(=O)N(C)Cc3ccc(S(F)(F)(F)(F)F)cc3)cc21 [Example 514, (3R)-4-amino-N,3-dimethyl-N-(4-(pentafluoro-lambda~6~- sulfanyl)benzyl)-1,3-dihydrofuro[3,4-c]quinoline-8-carboxamide]
6.13	7.40	Cc1nn(C)c2c1c(N)nc1cc(F)c(C(=O)N(Cc3ccc(C(F)(F)F)cn3)C(C)C)cc12 [Example 538, 4-amino-7-fluoro-1,3-dimethyl-N-(2-propanyl)-N-((5-(trifluoromethyl)-2-pyridinyl)methyl)-1H-pyrazolo[4,3-c]quinoline-8-carboxamide]
6.16	7.74	Cc1cc2nc(N)c3cnn(C)c3c2cc1C(=O)N(C)Cc1ccc(C(F)(F)F)cn1 [Example 521, 4-amino-N,1,7-trimethyl-N-((5-(trifluoromethyl)-2-pyridinyl)methyl)-1H-pyrazolo[4,3-c]quinoline-8-carboxamide]
6.42	7.85	CC(C)N(Cc1ccc(C2CC2)cn1)C(=O)c1cc2c(cc1F)nc(N)c1c2cnn1C [Example 522, 4-amino-N-((5-cyclopropyl-2-pyridinyl)methyl)-7-fluoro-3-methyl-N-(2-propanyl)-3H-pyrazolo[3,4-c]quinoline-8-carboxamide]
